Patent US10716778B2, “Use of compounds that are able to increase the serum IGF-1 level for the preparation of a therapeutical composition for treatment of various disease states associated with a reduced IGF-1 serum level in humans and animals” (VEIJLEN N.V., priority 2003, dated 2020)
Several values for one entry are separate records, joined by “and”; a condition that tells them apart may be missing. Equal values may be shown once.

Columns and labels:
IGF-1 [1] = experiment: IgF-1 level in athletes with intensive training taking IAA or placebo (Example 6); type: in vivo, human; conditions: group A
Description: Twenty athletes entered the study. Other medication was excluded from the research. The period of the treatment was 12 weeks. They were not allowed to take any other medication or food supplements. They continued their level of training. After 2 weeks, the training was intensified by 25%. At baseline, at the start, after 2 weeks, 4 weeks, 6 weeks, 8 weeks, 10 weeks and 12 weeks, IGF-1 and safety parameters (liver tests, hematology) were determined. The group was divided into two groups of ten athletes. Group A received IAA; group B got a placebo.
All samples from one subject were analyzed in the same run to avoid intra-assay variability. GH was assayed with a chemiluminescence kit (Nichols Institute Diagnostics, San Juan Capistrano, Calif., USA). Quantification of IGF-1 was performed using an immunoradiometric assay (IRMA) (DSL-5600 ACTIVE, DSL, Germany GmbH, Germany). Intra- and inter-assay variance was: 4.0% and 9.2% for GH; 3.0% and 1.5% for IGF-1.
The total work output of every subject was calculated with a two-way ANOVA for repeated measures and the hormone values were analyzed with the Wilcoxon test. In all cases, 1 p value of <0.05 was accepted as significant.
The following schedule was used for the supplements. 1 IAA capsule contained 10 mg IAA, 100 mg NaCl, 140 mg WPC 70. One Glutamine capsule contained 500 mg glutamine. The amino acids that were taken are as described in Table 1.

IGF-1 [2] = experiment: IGF-1 concentration in problem piglets (group P) with history of PRRSV treated with IAA (Example 9); type: in vivo, Belgian Land Race piglets; conditions: for IGF-1: group P piglets, acetic acid
Description: The piglets were weaned at four weeks and relocated, twelve piglets per pen. IGF-1 levels from three different groups were tested at the age of five weeks.
These are the pigs with the big problems. They are looking poor, have a low weight, bad color and some of them have Staphylococcus infections. It was the firm belief of the farmer and the veterinarian that these piglets would not reach the end of the fattening cycle. Blood samples were taken at random from five of the twelve piglets.
After seeing the low IGF-1 levels in group P, it was decided to give them the same treatment as in humans with CFS. The average weight of the piglets would have been around seven kilos at five weeks of age. They were treated with 125 mg of the composition comprising 5 mg IAA and 120 mg NaCl and WPC 70 for ten days. The product was fed in a trough, mixed in liquid feed. All the piglets ate from the same trough.
After ten days of treatment, random blood samples were taken from the different groups. A code was added for the size of the animals (K=small; N=normal; Z=heavy).
At random, IGF-1 concentrations of five piglets of this group were measured.
Three weeks later, blood samples were again taken, but only from the problem group.

IGF-1 [3] = experiment: IgF-1 level in type 2 diabetic patients during medication with IAA (Example 4); type: in vivo, human
Description: Five male type 2 diabetic patients took part in the study. They were all very difficult to regulate. When the study started, the average HbA1c was to be approximately 9.0%. The patients had no other clinical problems. In addition, the IgF-BP3/IgF-1 ratio had to be over 10. The age of the subjects were between 45 years and 75 years with an average of 58. The period of the investigation was 6 months. […] The following parameters were checked: IGF-1 and IGF-PB-3. Also, at the start, safety parameters (liver tests, hematology) were determined. Every 8 weeks, HbA1c was determined.
All samples from one subject were analyzed in the same run to avoid intra-assay variability. Quantification of IGF-1 was performed using an immunoradiometric assay (IRMA) (DSL-5600 ACTIVE™, DSL, Germany GmbH, Germany). Intra- and inter-assay variance was: 4.0% and 9.2% and 1.5% for IGF-1. The Hba1c was analyzed on HPLC Menarine HA 81-60.
The total work output of every subject was calculated with a 2-way ANOVA for repeated measures and the hormone values were analyzed with the Wilcoxon test. In all cases, a p value of <0.05 was accepted as significant.

Q: Which results are given for indole acetic acid [IAA]?
A: increase of IgF-1 level (IGF-1 [1]; over a period of 8 weeks (so in the source), statistically significant): ca. 47.7%; IgF-1 level, average test group (IGF-1 [1]; time point 0 (start), blood taken every 2 weeks over 12 weeks): 27.9 nmol/L; IgF-1 level, average test group (IGF-1 [1]; time point 1): 35.8 nmol/L; IgF-1 level, average test group (IGF-1 [1]; time point 2): 38.9 nmol/L; IgF-1 level, average test group (IGF-1 [1]; time point 3): 42.5 nmol/L; IgF-1 level, average test group (IGF-1 [1]; time point 4): 41.7 nmol/L; IgF-1 level, average test group (IGF-1 [1]; time point 5): 41.4 nmol/L; IgF-1 level, average test group (IGF-1 [1]; time point 6 (end of the study)): 41.2 nmol/L; IGF-1 (IGF-1 [2]; age five weeks, before treatment (baseline), random individual piglets): 2.3 nmol/l and <0.5 nmol/l (2×) and 2.0 nmol/l and 1.8 nmol/l; IGF-1 (IGF-1 [2]; after ten days of treatment (125 mg composition = 5 mg IAA), random individual piglets): 0.8 nmol/l and <0.5 nmol/l (3×) and 4.2 nmol/l; IGF-1 (IGF-1 [2]; three weeks later, treatment stopped, individual piglets): 55.6 nmol/L and 30.0 nmol/L and 23.4 nmol/L and 65.1 nmol/L and 13.7 nmol/L and 60.1 nmol/L and 36.9 nmol/L; change of IGF-1 levels (IGF-1 [2]; group P, after ten days of treatment): did not rise; IgF-1 level, average (IGF-1 [3]; Month 0 (start), average of 5 subjects, acetic acid): 10.8 nmol/L and 10.7 nmol/L; IgF-1 level (IGF-1 [3]; Month 0 (start), individual subjects, acetic acid): 11.1 nmol/L and 9.6 nmol/L and 10.4 nmol/L and 11.2 nmol/L and 11.3 nmol/L; IgF-1 level, average (IGF-1 [3]; Month 1, average of 5 subjects): 11.4 nmol/L; IgF-1 level (IGF-1 [3]; Month 1, individual subjects, acetic acid): 12.5 nmol/L and 10.1 nmol/L and 10.8 nmol/L and 11.6 nmol/L and 12.0 nmol/L; IgF-1 level, average (IGF-1 [3]; Month 2, average of 5 subjects): 12.0 nmol/L; IgF-1 level (IGF-1 [3]; Month 2, individual subjects, acetic acid): 13.1 nmol/L and 10.6 nmol/L and 11.6 nmol/L and 11.9 nmol/L and 12.6 nmol/L; IgF-1 level, average (IGF-1 [3]; Month 3, average of 5 subjects): 12.5 nmol/L; IgF-1 level (IGF-1 [3]; Month 3, individual subjects, acetic acid): 13.8 nmol/L and 11.1 nmol/L and 12.1 nmol/L and 12.3 nmol/L and 13.0 nmol/L; IgF-1 level, average (IGF-1 [3]; Month 4, average of 5 subjects): 13.0 nmol/L; IgF-1 level (IGF-1 [3]; Month 4, individual subjects, acetic acid): 14.3 nmol/L and 11.8 nmol/L and 12.6 nmol/L and 12.8 nmol/L and 13.5 nmol/L; IgF-1 level, average (IGF-1 [3]; Month 5, average of 5 subjects): 13.5 nmol/L; IgF-1 level (IGF-1 [3]; Month 5, individual subjects, acetic acid): 14.9 nmol/l and 12.1 nmol/l and 13.3 nmol/l (2×) and 13.9 nmol/l; IgF-1 level, average (IGF-1 [3]; Month 6, average of 5 subjects): 14.1 nmol/L; IgF-1 level (IGF-1 [3]; Month 6, individual subjects, acetic acid): 15.2 nmol/L and 12.9 nmol/L and 13.9 nmol/L and 14.4 nmol/L and 14.3 nmol/L
